Laboratory results: patent US20230255873A1, “COSMETIC OR DERMATOLOGICAL PEPTIDE-BASED TREATMENT OF THE SKIN AND ITS INTEGUMENTS” (Sederma, priority 2020, published 2023)
The star is where a group is joined. Palmitoyl = CCCCCCCCCCCCCCCC(=O)*

What was measured:
[1] = test system: normal human keratinocytes (NHK); assay: DNA Microarray on NHK culture; type: cell-based; details: 9 ppm, 24 hours, confluent NHKs
Protocol: 1.2—DNA Microarray-Technology NHK Culture Principle: the peptide according to the invention at 9 ppm is brought into contact for 24 hours with confluent NHKs (versus control case). Then the NHKs layers are rinsed, and the cells are crushed to extract their mRNA. These mRNAs are then converted into DNA sequences which are analyzed after deposition on DNA chips and amplification by a method similar to qRT-PCR (Real-time Quantitative Reverse Transcription Polymerase Chain Reaction). The mRNA variations due to the peptide are compared to the control case (the solvent of the peptide). The results are expressed as an expression ratio between the treated case and the control case. A ratio greater than 2 is considered to be induction of gene expression ([…]).

[2] = test system: P. acnes (strain ATCC6919); assay: Adhesion of P. acnes to a surface; type: cell-based, Propionibacterium acnes; details: 48 hours and 72 hours, two concentrations tested
Excerpt: […] At the end of the contact plus more or less the peptide, the quantity of isolated cells, not attached, was estimated by an OD at 600 nm.

[3] = test system: P. acnes (strain ATCC6919); assay: Biofilm formation of P. acnes (crystal violet); type: cell-based, Propionibacterium acnes; details: 3 days
Protocol: The adhesion of 10^6 CFU/mL of P. acnes (strain ATCC6919) to a surface for 72 hours in an appropriate medium was evaluated. At the end of the contact plus more or less the peptide, the quantity of isolated cells, not attached, was estimated by an OD at 600 nm. The biofilm and the bacteria still attached were labeled with crystal violet solution for 20 min. After rinsing, the quantity of crystal violet remaining on the biofilms was assayed, after extraction, also with a measurement of OD at 600 nm.

P. acnes = assay: Biofilm stability of P. acnes (peptide added 24 hours after start of culture); type: cell-based, Propionibacterium acnes; details: peptide added 24 hours after the start of the culture
Protocol: The effect of the peptide on the biofilm stability was also evaluated, the peptide being only added 24 hours after the start of the P. acnes culture.

HaCaTs = assay: Scratch test on HaCaTs (keratinocyte migration, with or without P. acnes); type: cell-based, human; details: 24 hours after injury
Protocol: 1.5—Scratch Test on HaCaTs
Principle: HaCats are inoculated in a 6-well plate in a suitable medium until confluence. 24-hour contact with the peptide according to the invention (test cases) or its excipient (control case) in the culture medium is then carried out. After this first step, wounds are made on the cell layers in the experimental wells (with a dedicated tool to make reproducible and small wounds); two wells per case are dedicated to cell counting; rinsing with PBS and an addition of culture medium with or without the peptide according to the invention depending on the case, in the presence or absence of Propionibacterium acnes (100 bacteria for 1 HaCaT cell) are carried out. Photos are taken (to calculate the area of the wound at T0 over a specific area). The cultures are stopped after 24 hours of incubation and photos are taken on the same areas as at T0. A photo processing software (Image J) can calculate for each case the area at T0 and the area recolonized by cells, 24 hours after injury, and establish a ratio.

Substance: palmitoyl-lysyl-threonyl-serine-lysyl-serine (Palmitoyl-KTSKS-OH; SMILES CCCCCCCCCCCCCCCC(=O)N[C@@H](CCCCN)C(=O)N[C@H](C(=O)N[C@@H](CO)C(=O)N[C@@H](CCCCN)C(=O)N[C@@H](CO)C(=O)O)[C@@H](C)O) [Pal-KTSKS]
- Expressed gene ABHD5 (1-acylglycerol-3-phosphate O-acyltransferase): variation compared to the control [1]: ×2.14
- Expressed gene ANXA1 (Annexin A1): variation compared to the control [1]: ×3.05
- Expressed gene AQP5 (Aquaporin 5): variation compared to the control [1]: ×3.11
- Expressed gene CALML5 (Calmodulin-like protein-5): variation compared to the control [1]: ×10.73
- Expressed gene CERS3 (Ceramide synthase 3): variation compared to the control [1]: ×2.38
- Expressed gene CGNL1 (Cingulin-like protein-1): variation compared to the control [1]: ×26.40
- Expressed gene CLDN7 (Claudin): variation compared to the control [1]: ×7.24
- Expressed gene CLDN23 (Claudin): variation compared to the control [1]: ×2.69
- Expressed gene CRNN (Cornulin): variation compared to the control [1]: ×258.60
- Expressed gene DEFB1 (Beta-1-defensin): variation compared to the control [1]: ×4.48
- Expressed gene DEFB103B (Human beta defensin-3): variation compared to the control [1]: ×337.87
- Expressed gene DMKN (Dermokin): variation compared to the control [1]: ×3.58
- Expressed gene ELOVL4 (3-keto acyl-CoA synthase): variation compared to the control [1]: ×5.06
- Expressed gene FLG2 (Filaggrine-2): variation compared to the control [1]: ×197
- Expressed gene HMOX1 (Heme Oxygenase-1): variation compared to the control [1]: ×29.27
- Expressed gene IL37 (Interleukin-37): variation compared to the control [1]: ×7.82
- Expressed gene IVL (Involucrin): variation compared to the control [1]: ×8.43
- Expressed gene KLK5 (Kallikrein 5): variation compared to the control [1]: ×2.2
- Expressed gene LCE2C: variation compared to the control [1]: ×37.7
- Expressed gene LCE3A (Late Cornified Envelop Protein): variation compared to the control [1]: ×306.86
- Expressed gene LCE3B: variation compared to the control [1]: ×324.01
- Expressed gene LCE3D: variation compared to the control [1]: ×1454.67
- Expressed gene LOR (Loricrin): variation compared to the control [1]: ×193
- Expressed gene OCLN (Occludin): variation compared to the control [1]: ×8.65
- Expressed gene PADI-1 (Peptidyl Arginin Deaminase): variation compared to the control [1]: ×185.61
- Expressed gene PI3 (Elafin): variation compared to the control [1]: ×7.73
- Expressed gene PRSS8 (Serine protease-8): variation compared to the control [1]: ×2.74
- Expressed gene RNASE7 (RNase 7): variation compared to the control [1]: ×40.85
- Expressed gene S100A7 (Psoriasin): variation compared to the control [1]: ×15.73
- Expressed gene SPINK5 (Serine protease inhibitor Kazal-type 5): variation compared to the control [1]: ×3.77
- Expressed gene SPRR1A (Small Proline Rich Region Protein): variation compared to the control [1]: ×2.00
- Expressed gene SPRR2A: variation compared to the control [1]: ×24.09
- Expressed gene SPRR2B: variation compared to the control [1]: ×451.61
- Expressed gene SPRR2C: variation compared to the control [1]: ×15.35
- Expressed gene SPRR2D: variation compared to the control [1]: ×23.97
- Expressed gene SPRR2E: variation compared to the control [1]: ×12.48
- Expressed gene SPRR2F: variation compared to the control [1]: ×15.29
- Expressed gene SPRR2G: variation compared to the control [1]: ×687.57
- Expressed gene SPRR3: variation compared to the control [1]: ×48.62
- Expressed gene SPRR4: variation compared to the control [1]: ×23.16
- Expressed gene TGM1 (Transglutaminase-1): variation compared to the control [1]: ×4.66
- Expressed gene TGM5 (Transglutaminase-5): variation compared to the control [1]: ×27.1
- Expressed gene TIMP1 (Metallopeptidase inhibitor 1): variation compared to the control [1]: ×3.68
- Expressed gene TIMP2 (Metallopeptidase inhibitor 2): variation compared to the control [1]: ×5.96
- Expressed gene TJP1 (Tight junction protein ZO-1): variation compared to the control [1]: ×2.02
- Drop in adhesion of P. acnes [2]: more than 83%
- Formation of the biofilm by P. acnes, variation vs control ([3]; 6 ppm): −98%
- Formation of the biofilm by P. acnes, variation vs control ([3]; 12 ppm): −99%
- Reduction of the biofilm formed at 72 hours vs control (biofilm stability) (P. acnes; 6 ppm): 89%
- Reduction of the biofilm formed at 72 hours vs control (biofilm stability) (P. acnes; 12 ppm): 93%
- Keratinocyte migration, variation compared to the control (HaCaTs; With P. acnes (Reference 2), 5 ppm of peptide): −49.67%
- Keratinocyte migration, variation compared to the control (HaCaTs; With P. acnes (Reference 2), 7 ppm of peptide): −66.15%
- Keratinocyte migration, variation compared to the control (HaCaTs; Without P. acnes, 5 ppm of peptide): −3% (nsd)
- Keratinocyte migration, variation compared to the control (HaCaTs; Without P. acnes, 7 ppm of peptide): −0.36% (nsd)
